What was measured:
[1] = biological target: T1, Axl (h) (Homo sapiens, UniProt P30530); assay: Enzymatic activity test, Axl (h); type: biochemical; settings: 10 μM [γ-33P]-ATP, 40 minutes, room temperature
T1 construct: purchased
T1 sequence (P30530 26-894): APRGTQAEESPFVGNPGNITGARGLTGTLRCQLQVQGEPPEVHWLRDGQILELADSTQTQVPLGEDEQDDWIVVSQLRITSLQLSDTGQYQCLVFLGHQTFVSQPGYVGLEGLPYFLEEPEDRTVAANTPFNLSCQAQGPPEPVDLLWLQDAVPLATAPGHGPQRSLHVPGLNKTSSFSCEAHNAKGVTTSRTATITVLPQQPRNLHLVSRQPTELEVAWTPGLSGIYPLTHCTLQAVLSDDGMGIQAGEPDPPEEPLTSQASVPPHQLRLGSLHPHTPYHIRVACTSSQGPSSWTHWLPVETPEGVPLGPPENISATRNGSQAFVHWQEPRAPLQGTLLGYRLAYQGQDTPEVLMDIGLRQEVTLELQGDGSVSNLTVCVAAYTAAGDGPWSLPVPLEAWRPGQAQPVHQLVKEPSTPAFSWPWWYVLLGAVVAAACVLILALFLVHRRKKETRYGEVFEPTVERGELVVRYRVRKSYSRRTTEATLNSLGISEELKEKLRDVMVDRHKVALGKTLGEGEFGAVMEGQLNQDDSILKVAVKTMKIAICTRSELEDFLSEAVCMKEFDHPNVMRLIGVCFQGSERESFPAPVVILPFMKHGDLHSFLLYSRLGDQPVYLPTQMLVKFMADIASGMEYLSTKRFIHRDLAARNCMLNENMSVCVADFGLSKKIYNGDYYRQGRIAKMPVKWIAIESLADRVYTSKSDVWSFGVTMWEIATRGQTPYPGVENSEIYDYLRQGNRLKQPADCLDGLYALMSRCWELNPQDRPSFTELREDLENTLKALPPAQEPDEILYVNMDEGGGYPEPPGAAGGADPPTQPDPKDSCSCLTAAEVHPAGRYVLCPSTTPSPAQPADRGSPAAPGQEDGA
Method: Assay 3: Enzymatic Activity Test of the Compounds of the Present Invention
(§1) Test substances: the compounds of the present invention, wherein the structures and preparations thereof were as described above.
(1) Preparation of the Compound Stock Solution
(§2) The compound was dissolved in 100% DMSO to prepare a stock solution with a maximum concentration of 500 μM.
(2) Preparation of the Compound Working Solution
The compound stock solution was diluted to final concentrations of 500, 150, 50, 15, 5, 1.5, 0.5, 0.15 and 0.05 μM to become the compound working solutions (50×).
(3) Preparation of Different Enzyme Reaction Solutions
The Axl (h) enzyme was dissolved in 8 mM MOPS (pH 7.0), 0.2 mM EDTA, and 250 μM KKSRGDYMTMQIG to prepare an enzyme solution having a final concentration of 1.7 nM. The enzymatic reaction was activated by using 10 mM magnesium acetate and 10 μM [γ-^33P]-ATP to form an Mg/ATP mixed solution.
(§3) In a 384-well plate, the compound working solution was added to final concentrations of 10000, 3000, 1000, 300, 100, 30, 10, 3, and 1 nM. Then different enzyme reaction solutions prepared according to the above conditions were added. The incubation was carried out for 40 minutes at room temperature. The test was terminated by the addition of a 0.5% phosphoric acid solution. 10 μL of the reaction solution was taken and dropped to the P30 filter paper. The filter paper was washed 4 times with 0.425% phosphoric acid solution and once with methanol, and then placed on a scintillation counter. The […] IC50 values were calculated using GraphPad 5.0 software.

[2] = biological target: T2, TrkB (h) (Homo sapiens, UniProt Q16620); assay: Enzymatic activity test, TrkB (h); type: biochemical; settings: 10 μM [γ-33P]-ATP, 40 minutes, room temperature
T2 construct: purchased
T2 sequence (Q16620 32-822): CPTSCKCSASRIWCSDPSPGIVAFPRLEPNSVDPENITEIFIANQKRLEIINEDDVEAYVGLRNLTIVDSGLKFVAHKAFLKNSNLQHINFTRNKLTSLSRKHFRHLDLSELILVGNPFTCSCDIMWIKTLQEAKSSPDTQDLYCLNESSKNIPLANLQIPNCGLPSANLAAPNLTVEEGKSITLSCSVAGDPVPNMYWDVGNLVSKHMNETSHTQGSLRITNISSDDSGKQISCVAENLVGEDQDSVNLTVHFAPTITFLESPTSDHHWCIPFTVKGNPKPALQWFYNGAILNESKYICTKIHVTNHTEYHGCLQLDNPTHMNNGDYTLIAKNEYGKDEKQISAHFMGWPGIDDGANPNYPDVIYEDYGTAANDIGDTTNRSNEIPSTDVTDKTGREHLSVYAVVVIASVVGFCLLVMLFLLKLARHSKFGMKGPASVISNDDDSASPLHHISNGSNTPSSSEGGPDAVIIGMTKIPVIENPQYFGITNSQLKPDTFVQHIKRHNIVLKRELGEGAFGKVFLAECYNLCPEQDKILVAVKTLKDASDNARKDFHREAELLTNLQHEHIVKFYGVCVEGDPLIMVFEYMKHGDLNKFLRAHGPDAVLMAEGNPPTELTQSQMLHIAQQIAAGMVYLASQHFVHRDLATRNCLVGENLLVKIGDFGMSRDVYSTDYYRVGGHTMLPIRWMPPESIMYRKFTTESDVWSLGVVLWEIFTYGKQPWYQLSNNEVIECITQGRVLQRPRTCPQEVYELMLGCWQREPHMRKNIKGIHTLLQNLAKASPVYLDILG
Method: (§4) Assay 4: Enzymatic Activity Test of the Compound of the Present Invention
as §1
(§5) Preparation of the Compound Stock Solution
as §2
(§6) Preparation of the Compound Working Solution
(§7) The compound stock solution was diluted to final concentrations of 500, 150, 50, 15. 5, 1.5, 0.5, 0.15 and 0.05 μM to become the compound working solutions (50×).
(§8) Preparation of Different Enzyme Reaction Solutions
The TrkB (h) enzyme was dissolved in 8 mM MOPS (pH 7.0), 0.2 mM EDTA, and 0.1 mg/mL poly(Glu, Tyr) 4:1 to prepare an enzyme solution having a final concentration of 3.1 nM. The enzymatic reaction was activated by using 10 mM magnesium acetate and 10 μM [γ-^33P]-ATP to form an Mg/ATP mixed solution,
as §3

[3] = biological target: T3, TrkC (h) (Homo sapiens, UniProt Q16288); assay: Enzymatic activity test, TrkC (h); type: biochemical; settings: 10 μM [γ-33P]-ATP, 40 minutes, room temperature
T3 construct: purchased
T3 sequence (Q16288 32-839): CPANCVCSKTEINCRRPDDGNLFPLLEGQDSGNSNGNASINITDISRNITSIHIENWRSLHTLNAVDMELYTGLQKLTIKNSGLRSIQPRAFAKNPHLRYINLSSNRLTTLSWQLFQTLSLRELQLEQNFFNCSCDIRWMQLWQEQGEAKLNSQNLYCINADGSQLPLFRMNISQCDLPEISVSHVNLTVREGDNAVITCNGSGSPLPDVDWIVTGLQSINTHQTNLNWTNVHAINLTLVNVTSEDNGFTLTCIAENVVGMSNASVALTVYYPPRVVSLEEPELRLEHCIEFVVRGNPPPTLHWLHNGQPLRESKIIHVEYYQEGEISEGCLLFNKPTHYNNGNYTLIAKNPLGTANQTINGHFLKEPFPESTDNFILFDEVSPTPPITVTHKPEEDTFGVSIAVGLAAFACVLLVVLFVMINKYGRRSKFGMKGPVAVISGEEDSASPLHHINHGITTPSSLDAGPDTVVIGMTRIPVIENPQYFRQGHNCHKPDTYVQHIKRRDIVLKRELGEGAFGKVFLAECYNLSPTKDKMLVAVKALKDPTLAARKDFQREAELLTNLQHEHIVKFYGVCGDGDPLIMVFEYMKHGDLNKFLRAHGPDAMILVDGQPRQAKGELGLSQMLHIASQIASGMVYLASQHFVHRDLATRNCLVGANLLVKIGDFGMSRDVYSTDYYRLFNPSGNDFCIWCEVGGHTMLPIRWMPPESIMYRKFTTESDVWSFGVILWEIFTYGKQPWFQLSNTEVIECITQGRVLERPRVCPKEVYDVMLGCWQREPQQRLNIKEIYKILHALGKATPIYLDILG
Method: as §4, §1, §5, §2, §6, §7, §8
The TrkC (h) enzyme was dissolved in 8 mM MOPS (pH 7.0), 0.2 mM EDTA, and 500 μM GEEPLYWSFPAKKK to prepare an enzyme solution having a final concentration of 38 nM. The enzymatic reaction was activated by using 10 mM magnesium acetate and 10 μM [γ-^33P]-ATP to form an Mg/ATP mixed solution.
as §3

[4] = biological target: T4, Ba/F3 LMNA-NTRK1 cells (Homo sapiens, UniProt P04629); assay: Cell viability test (CTG), Ba/F3 LMNA-NTRK1; type: cell-based; settings: NTRK1 wild type cell, 72 hours, read-out: IC50 Ba/F3 LMNA-NTRK1
T4 construct: fused on or other part: P02545 (Prelamin-A/C)
T4 sequence (P04629 whole entry, change not shown, the tested form may be a part): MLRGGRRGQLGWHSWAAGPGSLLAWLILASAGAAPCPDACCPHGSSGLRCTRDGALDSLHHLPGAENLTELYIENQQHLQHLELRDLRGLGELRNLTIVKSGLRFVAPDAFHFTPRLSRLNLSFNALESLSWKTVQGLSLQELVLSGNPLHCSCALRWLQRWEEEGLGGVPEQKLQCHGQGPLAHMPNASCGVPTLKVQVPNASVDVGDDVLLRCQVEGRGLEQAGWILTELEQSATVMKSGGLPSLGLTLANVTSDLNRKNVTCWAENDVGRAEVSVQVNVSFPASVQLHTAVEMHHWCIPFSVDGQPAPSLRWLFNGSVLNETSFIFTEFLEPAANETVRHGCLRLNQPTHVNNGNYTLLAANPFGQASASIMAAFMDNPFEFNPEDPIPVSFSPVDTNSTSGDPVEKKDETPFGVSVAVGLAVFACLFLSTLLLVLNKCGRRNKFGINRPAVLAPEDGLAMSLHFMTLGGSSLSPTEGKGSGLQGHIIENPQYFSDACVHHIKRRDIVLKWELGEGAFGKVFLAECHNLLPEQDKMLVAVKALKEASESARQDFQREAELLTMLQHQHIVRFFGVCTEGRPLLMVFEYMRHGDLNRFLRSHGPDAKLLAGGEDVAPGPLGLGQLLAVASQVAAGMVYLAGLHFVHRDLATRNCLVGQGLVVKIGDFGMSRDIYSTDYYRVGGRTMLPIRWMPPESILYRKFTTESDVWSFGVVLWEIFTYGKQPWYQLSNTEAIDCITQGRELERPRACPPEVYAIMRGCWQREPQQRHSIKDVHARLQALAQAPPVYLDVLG
Method: (§9) Assay 8: Cell viability test of the compounds of the present invention
Ba/F3 LMNA-NTRK1 is an NTRK1 wild type cell;
(§10) Test substances: the compounds of the present invention, wherein the structures thereof were as described above.
(§11) Test instrument: SpectraMax multi-label microplate reader.
(§12) Each cell was inoculated in a 96-well plate and adherent cells were cultivated overnight. Different concentrations of the compounds (9 dose groups, 3.16 times DMSO serial dilution) were added to give the final concentration of 0.1-1000 nM, and the final DMSO content was 1‰. The negative control wells contained the medium containing 1‰ DMSO. The cells were incubated at 37° C. in a condition of 5% CO2 and 95% humidity for 72 hours for use. An equal volume of CTG reagent was added to each well, and the cells were lysed by shaking for 5 minutes on an orbital shaker, and incubated for 20 minutes at room temperature to stabilize the cold light signal. The cold light signal was read with a microplate reader. Data were analyzed using GraphPad Prism 5.0 software, and data were fitted using nonlinear S-curve regression to derive a dose-response curve and thereby calculate IC50 values.

[5] = biological target: T5, Ba/F3 LMNA-NTRK1 G667C cells (Homo sapiens, UniProt P04629, G667C, cells depend on it); assay: Cell viability test (CTG), Ba/F3 LMNA-NTRK1 G667C; type: cell-based; settings: NTRK1 gene mutant cell, 72 hours, read-out: IC50 Ba/F3 LMNA-NTRK1 G667C
T5 construct: Ba/F3 LMNA-NTRK1 G667C and Ba/F3 LMNA-NTRK1-V573M are NTRK1 gene mutant cells; fused on or other part: P02545 (Prelamin-A/C)
T5 sequence (P04629 whole entry G667C, the tested form may be a part): as the sequence (P04629 whole entry, change not shown, the tested form may be a part) above, with G667C counted along it
Excerpt: as §9
Ba/F3 LMNA-NTRK1 G667C and Ba/F3 LMNA-NTRK1-V573M are NTRK1 gene mutant cells.
as §10, §11, §12

Row | Compound | IC50 [1] [nM] | IC50 [2] [nM] | IC50 [3] [nM] | GI50 [4] [nM] | GI50 [5] [nM]
1 | COc1cc2nccc(Oc3ccc(NC(=O)c4nn(C(C)C)cc(-c5ccc(F)cc5)c4=O)nc3)c2cc1OC [Compound 15, N-(5-((6,7-dimethoxyquinolin-4-yl)oxy)pyridin-2-yl)-5-(4-fluorophenyl)-1-isopropyl-4-oxo-1,4-dihydropyridazine-3-carboxamide] | 11 | 3 | 6 | 3.28 | 0.09
2 | COc1cc2nccc(Oc3ccc(NC(=O)c4nn(C5CC5)cc(-c5ccc(F)cc5)c4=O)nc3)c2cc1OC [Compound 31] | 4 | 3 | 3 | 17.3 | 1.4
3 | COc1cc2nccc(Oc3cnc(NC(=O)c4nn(C5CC5)cc(-c5ccc(F)cc5)c4=O)nc3)c2cc1OC [Compound 33] | 2 | 8 | 5 | 73 | 3
4 | COc1cc2nccc(Oc3ncc(NC(=O)c4nn(C(C)C)cc(-c5ccc(F)cc5)c4=O)cn3)c2cc1OC [Compound 34, N-(2-((6,7-dimethoxyquinolin-4-yl)oxy)pyrimidine-5-yl)-5-para-fluorophenyl-1-isopropyl-4-oxo-1,4-dihydropyridazine-3-carboxamide] | 5 | 3 | 6 | 14.3 | 0.68
5 | COc1cc2nccc(Oc3ccc(NC(=O)c4cn(C(C)C)nc(-c5ccc(F)cc5)c4=O)cn3)c2cc1OC [Compound 38, N-(6-((6,7-dimethoxyquinolin-4-yl)oxy)pyridin-3-yl)-6-para-fluorophenyl-2-isopropyl-5-oxo-2,5-dihydropyridazine-4-carboxamide] | 3 | 11 | 8 | 55.1 | 5.7
6 | COc1cc2nccc(Oc3cnc(NC(=O)c4cn(C(C)C)nc(-c5ccc(F)cc5)c4=O)nc3)c2cc1OC [Compound 39, N-(5-((6,7-dimethoxyquinolin-4-yl)oxy)pyrimidine-2-yl)-6-(4-fluorophenyl)-2-isopropyl-5-oxo-2,5-dihydropyridazine-4-carboxamide] | 4 | 17 | 10 | 42.4 | 8.1
7 | COc1cc2nccc(Oc3ncc(NC(=O)c4cn(C(C)C)nc(-c5ccc(F)cc5)c4=O)cn3)c2cc1OC [Compound 40, N-(2-((6,7-dimethoxyquinolin-4-yl)oxy)pyrimidine-5-yl)-6-(4-fluorophenyl)-2-isopropyl-5-oxo-2,5-dihydropyridazine-4-carboxamide] | 4 | 6 | 14 | 52.1 | 9.1

Reference: patent US20220073496A1, “NOVEL QUINOLINE DERIVATIVE INHIBITOR” (Nanjing Transthera Biosciences Co., Ltd., priority 2018, published 2022)
